# Paper PMC4980083 (JCI insight, 2016)
# Values joined by “and” are separate entries in the source; they are usually repeats but may differ in a detail not shown here. Equal entries are not always repeated.
# How the values were obtained:
# [1] = In vivo biodistribution in mice bearing LNCaP95 and PC3 xenografts; parameters: species or system male castrated NOD/SCID mice
# endogenous AR = assay: Binding to endogenous AR in LNCaP95 cells; type: cell-based, human; settings: 16 hours
# [2] = target: T1, recombinant full-length AR (Homo sapiens, UniProt P10275); assay: Cell-free binding to recombinant full-length AR; settings: 16 hours at room temperature
# T1 sequence (P10275 1-920): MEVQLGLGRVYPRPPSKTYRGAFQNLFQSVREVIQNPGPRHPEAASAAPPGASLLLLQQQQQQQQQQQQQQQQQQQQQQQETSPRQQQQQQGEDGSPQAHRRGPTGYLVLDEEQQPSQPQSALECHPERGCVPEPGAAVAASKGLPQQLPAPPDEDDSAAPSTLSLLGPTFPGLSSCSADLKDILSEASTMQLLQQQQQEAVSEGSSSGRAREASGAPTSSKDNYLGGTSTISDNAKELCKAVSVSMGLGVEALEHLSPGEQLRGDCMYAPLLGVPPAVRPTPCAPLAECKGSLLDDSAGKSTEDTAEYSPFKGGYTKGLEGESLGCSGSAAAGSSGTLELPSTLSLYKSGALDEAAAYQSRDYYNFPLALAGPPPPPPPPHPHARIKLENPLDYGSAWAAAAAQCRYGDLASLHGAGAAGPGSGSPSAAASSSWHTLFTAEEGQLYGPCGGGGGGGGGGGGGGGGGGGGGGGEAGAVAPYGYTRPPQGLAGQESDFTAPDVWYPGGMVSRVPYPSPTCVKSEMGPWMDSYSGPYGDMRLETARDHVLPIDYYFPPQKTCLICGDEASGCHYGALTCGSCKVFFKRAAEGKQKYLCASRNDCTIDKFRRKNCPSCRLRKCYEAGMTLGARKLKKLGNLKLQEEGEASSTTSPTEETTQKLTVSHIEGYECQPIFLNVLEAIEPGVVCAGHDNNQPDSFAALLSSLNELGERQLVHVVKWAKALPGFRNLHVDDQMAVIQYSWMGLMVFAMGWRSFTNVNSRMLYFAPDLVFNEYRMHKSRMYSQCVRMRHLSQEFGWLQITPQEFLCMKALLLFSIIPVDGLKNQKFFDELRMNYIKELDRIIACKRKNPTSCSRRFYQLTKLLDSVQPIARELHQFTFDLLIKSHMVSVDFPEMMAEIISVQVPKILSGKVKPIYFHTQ
# [3] = Biodistribution with blocking by excess cold EPI-002; type: in vivo, male castrated NOD/SCID mice; settings: excess cold EPI-002 50 mg/kg body weight; 1 hour
# [4] = Micro-SPECT/CT imaging of mice bearing LNCaP95 and PC3 xenografts; type: in vivo, male castrated NOD/SCID mice
substance,measurement,setting,value
[^123I]15-iodoEPI002 [^123I-EPI-002],Bladder uptake,[1]; 0 h after injection,0.79 ± 0.49 %ID/g
same,Blood uptake,[1]; 0 h after injection,12.57 ± 2.03 %ID/g
same,Bone uptake,[1]; 0 h after injection,1.09 ± 0.75 %ID/g
same,Brain uptake,[1]; 0 h after injection,1.29 ± 0.55 %ID/g
same,Heart uptake,[1]; 0 h after injection,7.62 ± 1.86 %ID/g
same,Kidney uptake,[1]; 0 h after injection,5.57 ± 2.37 %ID/g
same,Large intestine uptake,[1]; 0 h after injection,0.70 ± 0.42 %ID/g
same,Liver uptake,[1]; 0 h after injection,5.03 ± 3.29 %ID/g
same,Lung uptake,[1]; 0 h after injection,5.19 ± 1.59 %ID/g
same,Muscle uptake,[1]; 0 h after injection,1.60 ± 1.89 %ID/g
same,Negative tumor (PC3) uptake,[1]; 0 h after injection,0.19 ± 0.06 %ID/g
same,Positive tumor (LNCaP95) uptake,[1]; 0 h after injection,0.17 ± 0.06 %ID/g
same,Ratio LNCaP95/PC3,[1]; 0 h after injection,0.9
same,Ratio LNCaP95/blood,[1]; 0 h after injection,0.01
same,Ratio LNCaP95/kidney,[1]; 0 h after injection,0.03
same,Ratio LNCaP95/liver,[1]; 0 h after injection,0.04
same,Ratio LNCaP95/muscle,[1]; 0 h after injection,0.22
same,Small intestine uptake,[1]; 0 h after injection,2.44 ± 1.05 %ID/g
same,Spleen uptake,[1]; 0 h after injection,1.15 ± 1.04 %ID/g
same,Stomach uptake,[1]; 0 h after injection,1.80 ± 1.60 %ID/g
same,Bladder uptake,[1]; 1 h after injection,1.47 ± 0.65 %ID/g
same,Blood uptake,[1]; 1 h after injection,0.74 ± 0.30 %ID/g
same,Bone uptake,[1]; 1 h after injection,1.03 ± 0.31 %ID/g
same,Brain uptake,[1]; 1 h after injection,1.68 ± 0.67 %ID/g
same,Gallbladder uptake,[1]; 1 h after injection,10.09 ± 6.60 %ID/g
same,Heart uptake,[1]; 1 h after injection,2.25 ± 0.50 %ID/g
same,Kidney uptake,[1]; 1 h after injection,3.07 ± 0.90 %ID/g
same,Large intestine uptake,[1]; 1 h after injection,1.22 ± 0.34 %ID/g
same,Liver uptake,[1]; 1 h after injection,7.76 ± 0.95 %ID/g
same,Lung uptake,[1]; 1 h after injection,2.40 ± 1.01 %ID/g
same,Muscle uptake,[1]; 1 h after injection,1.34 ± 0.40 %ID/g
same,Ratio LNCaP95/PC3,[1]; 1 h after injection,3.2
same,Ratio LNCaP95/blood,[1]; 1 h after injection,3.58 ± 0.66 and 3.58
same,Ratio LNCaP95/kidney,[1]; 1 h after injection,0.71
same,Ratio LNCaP95/liver,[1]; 1 h after injection,0.29
same,Ratio LNCaP95/muscle,[1]; 1 h after injection,1.72
same,Small intestine uptake,[1]; 1 h after injection,7.43 ± 5.25 %ID/g
same,Spleen uptake,[1]; 1 h after injection,0.96 ± 0.23 %ID/g
same,Stomach uptake,[1]; 1 h after injection,1.73 ± 0.69 %ID/g
same,Bladder uptake,[1]; 2 h after injection,1.13 ± 0.55 %ID/g
same,Blood uptake,[1]; 2 h after injection,0.31 ± 0.08 %ID/g
same,Bone uptake,[1]; 2 h after injection,0.51 ± 0.11 %ID/g
same,Brain uptake,[1]; 2 h after injection,0.83 ± 0.21 %ID/g
same,Gallbladder uptake,[1]; 2 h after injection,2.12 ± 3.60 %ID/g
same,Heart uptake,[1]; 2 h after injection,1.04 ± 0.22 %ID/g
same,Kidney uptake,[1]; 2 h after injection,1.43 ± 0.58 %ID/g
same,Large intestine uptake,[1]; 2 h after injection,1.90 ± 2.02 %ID/g
same,Liver uptake,[1]; 2 h after injection,4.81 ± 1.13 %ID/g
same,Lung uptake,[1]; 2 h after injection,0.78 ± 0.19 %ID/g
same,Muscle uptake,[1]; 2 h after injection,0.49 ± 0.18 %ID/g
same,Negative tumor (PC3) uptake,[1]; 2 h after injection,0.35 ± 0.14 %ID/g
same,Positive tumor (LNCaP95) uptake,[1]; 2 h after injection,1.13 ± 0.16 %ID/g
same,Ratio LNCaP95/PC3,[1]; 2 h after injection,3.3
same,Ratio LNCaP95/blood,[1]; 2 h after injection,3.74
same,Ratio LNCaP95/kidney,[1]; 2 h after injection,0.96
same,Ratio LNCaP95/liver,[1]; 2 h after injection,0.24
same,Ratio LNCaP95/muscle,[1]; 2 h after injection,2.51
same,Small intestine uptake,[1]; 2 h after injection,6.29 ± 3.72 %ID/g
same,Spleen uptake,[1]; 2 h after injection,0.71 ± 0.34 %ID/g
same,Stomach uptake,[1]; 2 h after injection,0.68 ± 0.31 %ID/g
same,Bladder uptake,[1]; 4 h after injection,0.52 ± 0.17 %ID/g
same,Blood uptake,[1]; 4 h after injection,0.25 ± 0.07 %ID/g
same,Bone uptake,[1]; 4 h after injection,0.39 ± 0.13 %ID/g
same,Brain uptake,[1]; 4 h after injection,0.55 ± 0.18 %ID/g
same,Gallbladder uptake,[1]; 4 h after injection,0.35 ± 0.03 %ID/g
same,Heart uptake,[1]; 4 h after injection,0.88 ± 0.18 %ID/g
same,Kidney uptake,[1]; 4 h after injection,1.05 ± 0.11 %ID/g
same,Large intestine uptake,[1]; 4 h after injection,66 %ID/g and 66.53 ± 34.05 %ID/g
same,Liver uptake,[1]; 4 h after injection,4.30 ± 0.68 %ID/g
same,Lung uptake,[1]; 4 h after injection,0.75 ± 0.24 %ID/g
same,Muscle uptake,[1]; 4 h after injection,0.45 ± 0.13 %ID/g
same,Negative tumor (PC3) uptake,[1]; 4 h after injection,0.50 ± 0.17 %ID/g
same,Positive tumor (LNCaP95) uptake,[1]; 4 h after injection,1.04 ± 0.14 %ID/g
same,Ratio LNCaP95/PC3,[1]; 4 h after injection,2.1
same,Ratio LNCaP95/blood,[1]; 4 h after injection,4.38
same,Ratio LNCaP95/kidney,[1]; 4 h after injection,1.00
same,Ratio LNCaP95/liver,[1]; 4 h after injection,0.25
same,Ratio LNCaP95/muscle,[1]; 4 h after injection,2.57
same,Small intestine uptake,[1]; 4 h after injection,6.25 ± 2.18 %ID/g
same,Spleen uptake,[1]; 4 h after injection,0.55 ± 0.24 %ID/g
same,Stomach uptake,[1]; 4 h after injection,0.29 ± 0.19 %ID/g
same,Bladder uptake,[1]; 6 h after injection,0.39 ± 0.21 %ID/g
same,Blood uptake,[1]; 6 h after injection,0.17 ± 0.03 %ID/g
same,Bone uptake,[1]; 6 h after injection,0.21 ± 0.08 %ID/g
same,Brain uptake,[1]; 6 h after injection,0.39 ± 0.12 %ID/g
same,Gallbladder uptake,[1]; 6 h after injection,9.64 ± 16.02 %ID/g
same,Heart uptake,[1]; 6 h after injection,0.51 ± 0.13 %ID/g
same,Kidney uptake,[1]; 6 h after injection,0.65 ± 0.24 %ID/g
same,Large intestine uptake,[1]; 6 h after injection,47.42 ± 7.58 %ID/g
same,Liver uptake,[1]; 6 h after injection,2.92 ± 0.94 %ID/g
same,Lung uptake,[1]; 6 h after injection,0.50 ± 0.25 %ID/g
same,Muscle uptake,[1]; 6 h after injection,0.24 ±0.09 %ID/g
same,Negative tumor (PC3) uptake,[1]; 6 h after injection,0.49 ± 0.01 %ID/g
same,Positive tumor (LNCaP95) uptake,[1]; 6 h after injection,0.52 ± 0.10 %ID/g
same,Ratio LNCaP95/PC3,[1]; 6 h after injection,1.1
same,Ratio LNCaP95/blood,[1]; 6 h after injection,3.12
same,Ratio LNCaP95/kidney,[1]; 6 h after injection,0.85
same,Ratio LNCaP95/liver,[1]; 6 h after injection,0.21
same,Ratio LNCaP95/muscle,[1]; 6 h after injection,2.56
same,Small intestine uptake,[1]; 6 h after injection,2.37 ± 1.43 %ID/g
same,Spleen uptake,[1]; 6 h after injection,0.30 ± 0.18 %ID/g
same,Stomach uptake,[1]; 6 h after injection,0.19 ± 0.08 %ID/g
same,Bladder uptake,[1]; 12 h after injection,0.09 ± 0.04 %ID/g
same,Blood uptake,[1]; 12 h after injection,0.07 ± 0.04 %ID/g
same,Bone uptake,[1]; 12 h after injection,0.07 ± 0.05 %ID/g
same,Brain uptake,[1]; 12 h after injection,0.10 ± 0.05 %ID/g
same,Gallbladder uptake,[1]; 12 h after injection,3.12 ± 0.81 %ID/g
same,Heart uptake,[1]; 12 h after injection,0.17 ± 0.10 %ID/g
same,Kidney uptake,[1]; 12 h after injection,0.16 ± 0.08 %ID/g
same,Large intestine uptake,[1]; 12 h after injection,27.02 ± 14.89 %ID/g
same,Liver uptake,[1]; 12 h after injection,1.06 ± 0.48 %ID/g
same,Lung uptake,[1]; 12 h after injection,0.16 ± 0.08 %ID/g
same,Muscle uptake,[1]; 12 h after injection,0.06 ± 0.03 %ID/g
same,Negative tumor (PC3) uptake,[1]; 12 h after injection,0.13 ± 0.13 %ID/g
same,Positive tumor (LNCaP95) uptake,[1]; 12 h after injection,0.15 ± 0.08 %ID/g
same,Ratio LNCaP95/PC3,[1]; 12 h after injection,1.2
same,Ratio LNCaP95/blood,[1]; 12 h after injection,2.22
same,Ratio LNCaP95/kidney,[1]; 12 h after injection,0.92
same,Ratio LNCaP95/liver,[1]; 12 h after injection,0.14
same,Ratio LNCaP95/muscle,[1]; 12 h after injection,2.98
same,Small intestine uptake,[1]; 12 h after injection,2.14 ± 1.49 %ID/g
same,Spleen uptake,[1]; 12 h after injection,0.07 ± 0.03 %ID/g
same,Stomach uptake,[1]; 12 h after injection,1.78 ± 1.27 %ID/g
same,binding to endogenous AR in LNCaP95 cells,endogenous AR,binds covalently and specifically to AR
same,binding to recombinant full-length AR,[2],binds to recombinant full-length AR
same,decrease in ^123I-EPI-002 accumulation in the LNCaP95 xenograft by blocking,[3],74%
same,LNCaP95 tumor uptake (SPECT),[4]; 2 hours after injection,1.09% ± 0.41%
same,thyroid uptake,[4]; blocking with EPI-002,2.32% ± 0.33%
same,thyroid uptake,[4]; unblocked,approximately 2.31% ± 0.59%
